# Test results as given in patent US10421755B2, “Salts of aza-bicyclic di-aryl ethers and methods to make them or their precursors” (Novartis AG, priority 2011, dated 2019).
# “And” between values parts separate entries of the source, which are not always exact repeats. Identical values can stand only once.
# Legend:
# [1] = Stability in buffer solutions and in solid state; format: physicochemical
# [2] = Pharmacokinetics in rats after oral administration; format: in vivo, Wistar rats; settings: 10 mg/kg oral
# Description: If a salt forming agent is used (e.g. fumarate), a corresponding higher amount of the salt will be used to achieve the intended dosing.
# Both compounds were dissolved in Klucel™ (0.5% in water) and were orally administered by gavage (5 ml/kg) to conscious rats (n=8, cross-over design).
# K3-EDTA blood (˜0.2 ml) was collected by puncture of a sublingual vein under light isoflurane anesthesia at the following time points: 0.25, 0.5, 1, 2, 3, 4, 6, 8, 24 h post dose. Immediately after sampling, blood samples were put on ice and were processed to plasma by centrifugation at 4° C. within 15 min after sampling (1000 g, 10 min, 4° C.) to obtain ˜100 μl plasma/sample. All plasma samples were stored at −80° C. until analysis. Since the PK study was performed in a cross-over design, a recovery period of approximately 2 weeks took place before the next treatment/blood sampling was performed.
# The determination of compounds in plasma was done by LC-MS/MS using electrospray ionization.
# [3] = Stability of the active ingredient in tablets; format: physicochemical; settings: tablets where only certain lubricants are used
# Description: It is particularly important that the active ingredient remains chemically stable over a potential long shelf time. When assessing storage stability, relative amounts of individual degradation products compared to the total amount of active ingredient are taken into consideration. Individual degradation products should all be present in low relative amounts to ensure that no single product can reach a non-acceptable level, e.g. when the active ingredient is administered in high doses.
# [4] = Oral bioavailability in dogs; format: in vivo, beagle dogs; settings: 1.4 μmol/kg p.o.
# Description: Assay: The compound was given to N=3 male beagle dogs in tritiated form:
# The concentration of the compound in blood was determined by LC-RID. The procedure involved the addition of 5 μg of the compound as internal standard (200 μL of solution containing 25 μg/mL of the compound) to 1 mL of blood. After further addition of 1 mL of water, 0.1 mL of buffer pH 9 and 4 mL of tert-butylmethylether, the samples were shaken for 30 min and centrifuged (4000 g for 10 min at 22° C.). The organic phase was transferred into a tube and evaporated in a Speedvac. The residue was reconstituted in 250 μL of mobile phase-water (80:20 v/v) followed by 75 μL of n-hexane and transferred into an autosampler vial. After centrifugation (13,000 g for 2 min at 22° C.), the hexane layer was pipetted off and discarded, 200 μL of the remainder was injected onto an RP18 column (Waters XTerra, 5 μm, 3.9×150 mm at 40° C.) to separate the compound from potential metabolites and endogenous compounds. The mobile phase of ammonium acetate (10 mM: 0.1% v/v TFA-acetonitrile, 58:42 v/v) was used at a flow rate of 1.0 mL/min. The effluent was monitored by a UV-detector set at 261 nm. The peak corresponding to the unchanged compound was collected in a polyethylene vial by a fraction collector (SuperFrac, Pharmacia LKB) and analyzed for radioactivity. The concentration of the compound in each sample was calculated from the ratio of the amount of radioactivity in the eluate fraction to the area of the ultraviolet absorbance of the non-radiolabeled the compound, that was used as the internal standard.
# [5] = Decomposition temperature; format: physicochemical; design: unit not given here; settings: comparison table, Example 7
# [6] = Known multiple solid forms; format: physicochemical; settings: comparison table, Example 7
# [7] = Loss on drying / initial water content; format: physicochemical; design: Initial water content: unit not given here
# [8] = Hygroscopicity (moisture gain at relative humidity); format: physicochemical; design: Hygroscopy @ 85% RH: unit not given here
# [9] = Particle size measurements by Fraunhofer light diffraction; format: physicochemical; settings: N=8
# Description: Mean particle sizes, X90 and X10 are typically measured by Fraunhofer light diffraction.
# To about 0.5 g of test substance add some drops of the dispersing aid (1% Octastat 5000 (Octel Corp.) in white spirit (Sangajol, Schweizerhall Chemie)). Mix intensively on a vortex mixer, in order to wet the substance thoroughly and to form a smooth and homogeneous paste. Dilute the paste with white spirit to a final volume of 3-6 ml and mix the dispersion again. Determine the cumulative volume distribution using a laser diffraction instrument, e.g. determine the particle sizes at the undersize values of 10%, 50% and 90% (x10, x50, x90). Measuring device: Sympatec HELOS (Sympatec GmbH; focal length: 500 mm, optical concentration≥5%, duration of measurement: 40 sec).
# Dispersion device: Suspension cell (QUIXEL, Sympatec GmbH).
# [10] = male Wistar rats (n=8), mean (text: ± SD)
# [11] = male Wistar rats, individual rats 01-08, listed as mono-fumarate, 10 mg/kg
compound,measurement,setting,value
"Cc1ccc(-c2ccc(O[C@H]3CN4CCC3CC4)cn2)cc1.O=C(O)/C=C/C(=O)O [Compound B, (R)-3-(6-(4-methylphenyl)-pyridin-3-yloxy)-1-aza-bicyclo[2.2.2]octane hydrogenfumarate]",solid-state stability,[1],good
same,stability in buffer solutions,"[1]; many buffer solutions, various pH values",good stability
same,"Concentration of free form in plasma, Mean All","[2]; male Wistar rats (n=8), 0.25 h, mean",149 ng/mL
same,"Concentration of free form in plasma, Mean All","[2]; male Wistar rats (n=8), 0.5 h, mean",132 ng/mL
same,"Concentration of free form in plasma, Mean All","[2]; male Wistar rats (n=8), 1 h, mean",77.4 ng/mL
same,"Concentration of free form in plasma, Mean All","[2]; male Wistar rats (n=8), 2 h, mean",38.9 ng/mL
same,"Concentration of free form in plasma, Mean All","[2]; male Wistar rats (n=8), 3 h, mean",19.5 ng/mL
same,"Concentration of free form in plasma, Mean All","[2]; male Wistar rats (n=8), 4 h, mean",10.6 ng/mL
same,"Concentration of free form in plasma, Mean All","[2]; male Wistar rats (n=8), 6 h, mean",5.10 ng/mL
same,"Concentration of free form in plasma, Mean All","[2]; male Wistar rats (n=8), 8 h, mean",2.54 ng/mL
same,"Concentration of free form in plasma, Mean All","[2]; male Wistar rats (n=8), 24 h, mean",0.320 ng/mL
same,"Tmax (h), all rats","[2]; male Wistar rats (n=8), Median [range], listed as mono-fumarate",0.25 [0.25-0.50]^a h
same,"Cmax/Dose (ng/mL)/(mg/kg), Mean All","[2]; male Wistar rats (n=8), mean",16.5 (ng/mL)/(mg/kg)
same,"AUClast (h · ng/mL), Mean All",[2]; [10],249 ± 42 ng·h/mL
same,"Cmax (ng/mL), Mean All",[2]; [10],161 ± 53 ng/mL
same,Concentration of free form in plasma,"[2]; male Wistar rats, 0.25 h, individual rats 01-08",89.0 ng/mL
same,Concentration of free form in plasma,"[2]; male Wistar rats, 0.25 h, individual rats 01-08, listed as mono-fumarate, 10 mg/kg",167 ng/mL and 162 ng/mL and 77.8 ng/mL and 242 ng/mL and 204 ng/mL and 93.3 ng/mL and 153 ng/mL
same,Concentration of free form in plasma,"[2]; male Wistar rats, 0.5 h, individual rats 01-08",130 ng/mL
same,Concentration of free form in plasma,"[2]; male Wistar rats, 0.5 h, individual rats 01-08, listed as mono-fumarate, 10 mg/kg",104 ng/mL and 78.4 ng/mL and 99.7 ng/mL and 143 ng/mL and 179 ng/mL and 184 ng/mL and 138 ng/mL
same,Concentration of free form in plasma,"[2]; male Wistar rats, 1 h, individual rats 01-08, listed as mono-fumarate, 10 mg/kg",67.1 ng/mL and 88.8 ng/mL and 41.3 ng/mL and 62.8 ng/mL and 83.2 ng/mL and 80.8 ng/mL and 101 ng/mL and 94.2 ng/mL
same,Concentration of free form in plasma,"[2]; male Wistar rats, 2 h, individual rats 01-08, listed as mono-fumarate, 10 mg/kg",27.4 ng/mL and 39.2 ng/mL and 37.8 ng/mL and 24.6 ng/mL and 47.1 ng/mL and 37.6 ng/mL and 54.8 ng/mL and 42.6 ng/mL
same,Concentration of free form in plasma,"[2]; male Wistar rats, 3 h, individual rats 01-08, listed as mono-fumarate, 10 mg/kg",12.4 ng/mL and 17.7 ng/mL and 25.3 ng/mL and 11.7 ng/mL and 19.6 ng/mL and 20.6 ng/mL and 25.1 ng/mL and 23.2 ng/mL
same,Concentration of free form in plasma,"[2]; male Wistar rats, 4 h, individual rats 01-08, listed as mono-fumarate, 10 mg/kg",9.06 ng/mL and 10.6 ng/mL and 13.3 ng/mL and 5.90 ng/mL and 9.71 ng/mL and 11.8 ng/mL and 13.0 ng/mL and 11.1 ng/mL
same,Concentration of free form in plasma,"[2]; male Wistar rats, 6 h, individual rats 01-08, listed as mono-fumarate, 10 mg/kg",7.49 ng/mL and 3.47 ng/mL and 7.63 ng/mL and 5.79 ng/mL and 4.29 ng/mL and 4.24 ng/mL and 4.05 ng/mL and 3.87 ng/mL
same,Concentration of free form in plasma,"[2]; male Wistar rats, 8 h, individual rats 01-08, listed as mono-fumarate, 10 mg/kg",2.91 ng/mL and 2.35 ng/mL and 3.62 ng/mL and 2.62 ng/mL and 2.46 ng/mL and 1.94 ng/mL and 2.38 ng/mL and 2.07 ng/mL
same,AUClast,[2]; [11],202 ng·h/mL and 259 ng·h/mL and 212 ng·h/mL and 188 ng·h/mL and 269 ng·h/mL and 292 ng·h/mL and 298 ng·h/mL and 272 ng·h/mL
same,Cmax,[2]; [11],167 ng/mL and 162 ng/mL and 78.4 ng/mL and 99.7 ng/mL and 242 ng/mL and 204 ng/mL and 184 ng/mL and 153 ng/mL
same,Cmax/Dose (ng/mL)/(mg/kg),[2]; [11],17.2 (ng/mL)/(mg/kg) and 16.4 (ng/mL)/(mg/kg) and 7.88 (ng/mL)/(mg/kg) and 10.2 (ng/mL)/(mg/kg) and 25.2 (ng/mL)/(mg/kg) and 21.1 (ng/mL)/(mg/kg) and 18.3 (ng/mL)/(mg/kg) and 15.7 (ng/mL)/(mg/kg)
same,Tlast,[2]; [11],8.0 h (2×) and 24.0 h (6×)
same,Tmax,[2]; [11],0.25 h (5×) and 0.50 h (3×)
same,T½,[2]; [11],2.44 h and 5.02 h and 3.62 h and 3.71 h and 2.02 h and 3.97 h and 5.51 h
same,"T½ (h), Mean All","[2]; male Wistar rats, mean",3.76 h
same,stability in tablets,[3],very stable
same,Plasma (pmoles/ml ± SD),[4]; 0.25 hour,14.7 ± 1.1 pmol/mL
same,Plasma (pmoles/ml ± SD),[4]; 0.5 hour,49.4 ± 21.9 pmol/mL
same,Plasma (pmoles/ml ± SD),[4]; 1 hour,67.6 ± 22.6 pmol/mL
same,Plasma (pmoles/ml ± SD),[4]; 2 hour,75.2 ± 36.8 pmol/mL
same,Plasma (pmoles/ml ± SD),[4]; 4 hour,27.5 ± 13.3 pmol/mL
same,Plasma (pmoles/ml ± SD),[4]; 8 hour,8.1 ± 3.0 pmol/mL
same,Plasma (pmoles/ml ± SD),[4]; 24 hour,0.8 ± 0.7 pmol/mL
same,Decomposition temperature,[5],207
same,Known Multiple forms,[6],No
same,Loss on drying (LOD) of a sample,[7],< 0.03%
same,Initial water content,"[7]; comparison table, Example 7",<0.5
same,hygroscopicity (in words),[8],slightly hygroscopic
same,moisture gain,[8]; at 85% relative humidity (RH),0.5%
same,Hygroscopy @ 85% RH,"[8]; comparison table, Example 7",0.5
same,particle size x10,[9],5.6±0.5 μm
same,particle size x50 (mean particle size),[9],26.8±1.3 μm
same,particle size x90,[9],77.3±3.3 μm
